From the supplement of paper PMC10307832

How the values were obtained:
Test in all cases: relative viability (nuclei count vs DMSO), 5 days (fraction); higher = more cells survive
[1] = compound: C1CSC2=C(C(=O)N1)SC3=C2C=C(C=C3)O [kb NB 142-70] + C[C@]1(O)C[C@@H](c2nc(-c3ccc4ccc(-c5ccccc5)nc4c3)c3c(N)nccn32)C1 [Linsitinib] (partner 1 µM)
In short: (§1)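 Medians of duplicate plates are given as relative viability. That measure is the nuclei count in treated wells divided by the count in vehicle wells. Counts were taken on 4× images of lung cancer cell lines in 1536-well plates, 5 days after pin-tool dosing the day after seeding with one drug alone or a fixed anchor-drug dose plus five library-drug doses (not always all listed) in √10 steps.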

[2] = compound: C1CSC2=C(C(=O)N1)SC3=C2C=C(C=C3)O [kb NB 142-70] + CC(=O)Nc1cccc(-n2c(=O)n(C3CC3)c(=O)c3c(Nc4ccc(I)cc4F)n(C)c(=O)c(C)c32)c1 [Trametinib] (partner 0.02 µM)
In short: as §1

[3] = compound: NCC(=O)Nc1ccc(-n2nc(C(F)(F)F)cc2-c2ccc3c(ccc4ccccc43)c2)cc1 + N=C(N)NC(=N)NCCc1ccccc1 [Phenformin] (partner 250 µM)
In short: as §1

[4] = compound: NCC(=O)Nc1ccc(-n2nc(C(F)(F)F)cc2-c2ccc3c(ccc4ccccc43)c2)cc1 + Nc1nc2[nH]cc(CCc3ccc(C(=O)N[C@@H](CCC(=O)O)C(=O)O)cc3)c2c(=O)[nH]1 [Pemetrexed] (partner 0.2 µM)
In short: as §1

Cell Line | relative viability ([1]; first compound 0.1 µM) | relative viability ([1]; first compound 1 µM) | relative viability ([1]; first compound 3.162 µM) | relative viability ([2]; first compound 0.1 µM) | relative viability ([2]; first compound 1 µM) | relative viability ([2]; first compound 3.162 µM) | relative viability ([3]; first compound 0.02 µM) | relative viability ([3]; first compound 0.06325 µM) | relative viability ([3]; first compound 0.2 µM) | relative viability ([3]; first compound 0.6325 µM) | relative viability ([3]; first compound 2 µM) | relative viability ([4]; first compound 0.02 µM) | relative viability ([4]; first compound 0.06325 µM) | relative viability ([4]; first compound 0.2 µM) | relative viability ([4]; first compound 0.6325 µM) | relative viability ([4]; first compound 2 µM)
NCI-H1975 | 0.946 | 1.11 | 0.519 | 0.407 | 0.339 | 0.248 | 0.392 | 0.375 | 0.439 | 0.424 | 0.422 | 0.309 | 0.293 | 0.291 | 0.282 | 0.278
CAL-12T | 0.859 | 0.869 | 1.03 | 0.341 | 0.39 | 0.241 | 0.572 | 0.601 | 0.586 | 0.576 | 0.627 | 1.11 | 1.2 | 1.2 | 1.12 | 0.97
NCI-H1623 |  |  |  |  |  |  | 0.604 | 0.671 | 0.6 | 0.577 | 0.555 |  |  |  |  | 
HCC-44 | 0.689 | 0.716 | 0.658 | 1.06 | 1.06 | 1.1 | 0.308 | 0.252 | 0.25 | 0.202 | 0.284 | 0.634 | 0.624 | 0.682 | 0.657 | 0.63
EKVX | 0.969 | 1.01 | 1.04 | 0.357 | 0.378 | 0.296 | 0.228 | 0.273 | 0.218 | 0.236 | 0.219 | 0.38 | 0.358 | 0.408 | 0.439 | 0.403
NCI-H1651 | 1.04 | 0.929 | 0.376 | 0.786 | 0.858 | 0.834 | 0.313 | 0.387 | 0.327 | 0.371 | 0.313 | 0.588 | 0.34 | 0.577 | 0.603 | 0.608
NCI-H1944 | 1.17 | 1.24 | 1.18 | 0.417 | 0.444 | 0.442 | 0.191 | 0.233 | 0.204 | 0.201 | 0.207 | 0.609 | 0.731 | 0.642 | 0.553 | 0.575
NCI-H1703 | 0.975 | 0.625 | 0.823 |  |  |  |  |  |  |  |  |  |  |  |  | 
Calu-6 | 0.93 | 0.889 | 0.683 |  |  |  |  |  |  |  |  |  |  |  |  | 
EBC-1 | 0.897 | 0.952 | 0.817 |  |  |  |  |  |  |  |  |  |  |  |  | 
SW 1573 | 0.744 | 0.693 | 0.351 | 0.541 | 0.475 | 0.418 | 0.394 | 0.356 | 0.383 | 0.401 | 0.366 | 0.847 | 0.805 | 0.81 | 0.796 | 0.75
A-427 | 1.04 | 1.12 | 1.01 | 0.841 | 0.764 | 0.726 |  | 0.411 | 0.315 | 0.334 | 0.352 | 1 | 0.975 | 1.02 | 0.974 | 0.957
IA-LM | 0.621 | 0.771 | 0.87 |  |  |  |  |  |  |  |  |  |  |  |  | 
ChaGo-K-1 |  |  |  | 0.883 | 0.875 | 0.876 | 0.438 | 0.495 | 0.443 | 0.522 | 0.519 | 0.256 | 0.263 | 0.263 | 0.27 | 0.264
NCI-H2342 |  |  |  | 0.804 | 0.857 | 0.903 | 0.685 | 0.582 | 0.733 | 0.515 | 0.537 | 0.796 | 0.757 | 0.764 | 0.762 | 0.812
NCI-H1299 | 1.07 | 1.07 | 1.14 |  |  |  |  |  |  |  |  |  |  |  |  | 
NCI-H1650 |  |  |  | 0.557 | 0.507 | 0.761 | 0.426 | 0.49 |  | 0.515 | 0.449 | 0.399 | 0.423 | 0.331 | 0.485 | 0.38
SW 900 |  |  |  | 0.73 | 1.05 | 0.682 |  | 0.729 | 0.599 | 0.587 | 0.661 | 0.501 | 0.495 | 0.453 | 0.508 | 0.495
NCI-H727 | 0.356 | 0.323 | 0.28 | 0.419 | 0.367 | 0.316 | 0.63 | 0.606 | 0.561 | 0.41 | 0.728 |  |  |  |  | 
NCI-H1648 |  |  |  | 0.459 | 0.551 | 0.417 |  |  |  |  |  | 0.625 | 0.636 | 0.647 | 0.706 | 0.687
NCI-H522 |  |  |  | 0.799 | 0.617 | 0.566 |  | 0.66 | 0.585 | 0.664 | 0.651 | 0.968 | 0.973 | 0.874 | 0.86 | 1.07
A549 | 0.551 | 0.524 | 0.499 |  |  |  | 0.0913 | 0.168 | 0.0781 | 0.198 | 0.17 |  |  |  |  | 
NCI-H2170 |  |  |  | 0.878 | 0.958 | 0.888 | 0.397 | 0.446 | 0.429 | 0.438 | 0.457 | 0.251 | 0.262 | 0.239 | 0.265 | 0.269
NCI-H1563 | 1.19 | 1.19 | 1.28 |  |  |  | 0.606 | 0.664 | 0.658 | 0.633 | 0.712 | 0.801 | 0.81 | 0.702 | 0.722 | 0.737
ABC-1 | 0.976 | 0.984 | 0.683 |  |  |  | 0.248 | 0.233 |  | 0.225 | 0.245 |  |  |  |  | 
